Here are results for nine compounds from BindingDB's records for PubMed 1652050 (Seattle Veterans Affairs Medical Center, 1991).

Molecules are shown by their SMILES. Where “and” joins values, the source holds several entries; their conditions need not be identical. Equal values may be shown once.

One may read the Ki as the dissociation constant of the complex between target and ligand, obtained from inhibition or displacement. Lower therefore signals higher affinity.

The target in this experiment is 5-hydroxytryptamine receptor 1D (Homo sapiens, UniProt P28221).
Chain of 5-hydroxytryptamine receptor 1D (P28221 whole entry): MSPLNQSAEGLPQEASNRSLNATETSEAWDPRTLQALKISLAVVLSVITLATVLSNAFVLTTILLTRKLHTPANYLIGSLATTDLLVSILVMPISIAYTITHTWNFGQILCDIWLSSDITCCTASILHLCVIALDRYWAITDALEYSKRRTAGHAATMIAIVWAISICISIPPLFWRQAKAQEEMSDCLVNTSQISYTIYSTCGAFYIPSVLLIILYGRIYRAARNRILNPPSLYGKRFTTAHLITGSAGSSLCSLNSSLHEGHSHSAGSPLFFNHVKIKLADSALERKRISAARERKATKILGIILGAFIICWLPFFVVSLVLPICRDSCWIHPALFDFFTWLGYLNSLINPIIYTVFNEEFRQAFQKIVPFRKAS

`CN1C2CCC1CC(OC(=O)c1c[nH]c3ccccc13)C2` (centres undefined) gave a Ki above 10000 nM. As for `CN1CC(C(=O)N[C@]2(C)O[C@@]3(O)C4CCCN4C(=O)[C@H](Cc4ccccc4)N3C2=O)CC2c3cccc4[nH]cc(c34)CC21` (stereo partly drawn) [7-Methyl-4,6,6a,7,8,9,10,10a-octahydro-indolo[4,3-fg]quinoline-9-carboxylic acid ((2R,5S,10bS)-5-benzyl-10b-hydroxy-2-methyl-3,6-dioxo-octahydro-oxazolo[3,2-a]pyrrolo[2,1-c]pyrazin-2-yl)-amide], the Ki amounted to 0.13 nM. In turn, `O=C(CCCN1CCC2(CC1)C(=O)NCN2c1ccccc1)c1ccc(F)cc1` [8-[4-(4-fluorophenyl)-4-oxidanylidene-butyl]-1-phenyl-1,3,8-triazaspiro[4.5]decan-4-one] had a Ki of 3100 nM. In the case of `CN1C[C@@H](NS(=O)(=O)N(C)C)C[C@@H]2c3cccc4c3c(cn4C)C[C@H]21` [MESULERGINE], the Ki stood at 1700 nM. Consider `CN1C[C@H](CNC(=O)OCc2ccccc2)C[C@@H]2c3cccc4c3c(cn4C)C[C@H]21` [METERGOLINE], for which the Ki was found to be 0.61 nM. As to `CC(C)(C)NCC(O)COc1cccc2[nH]c(C#N)cc12` (centres undefined) [NSC_155346], affinity was put at a Ki of 85 nM.

For `Clc1cccc(N2CCNCC2)c1` [mCPP], the affinity corresponds to a Ki of 210 nM. As for `CSc1ccc2c(c1)C(N1CCN(C)CC1)Cc1ccccc1S2` (centres undefined) [methanesulfonic acid;1-methyl-4-(3-methylsulfanyl-5,6-dihydrobenzo[b][1]benzothiepin-5-yl)piperazine], the figure is 5.8 nM; as for `COC(=O)[C@@H]1[C@H]2C[C@H]3c4[nH]c5ccccc5c4CCN3C[C@@H]2CC[C@@H]1O` [yohimbic acid methyl ester], 59 nM and 51 nM.
